Reference: patent US8367328B2, “Method for synthesizing DNA” (Takara Bio Inc., priority 1998, dated 2013)

Target: T1, Pfu DNA Polymerase II (Pyrococcus furiosus, UniProt P81409+P81412)
T1 construct: made in house; host or cells: Escherichia coli JM109/pFU1001 (FERM BP-5579)
T1 sequence (P81409 1-1263): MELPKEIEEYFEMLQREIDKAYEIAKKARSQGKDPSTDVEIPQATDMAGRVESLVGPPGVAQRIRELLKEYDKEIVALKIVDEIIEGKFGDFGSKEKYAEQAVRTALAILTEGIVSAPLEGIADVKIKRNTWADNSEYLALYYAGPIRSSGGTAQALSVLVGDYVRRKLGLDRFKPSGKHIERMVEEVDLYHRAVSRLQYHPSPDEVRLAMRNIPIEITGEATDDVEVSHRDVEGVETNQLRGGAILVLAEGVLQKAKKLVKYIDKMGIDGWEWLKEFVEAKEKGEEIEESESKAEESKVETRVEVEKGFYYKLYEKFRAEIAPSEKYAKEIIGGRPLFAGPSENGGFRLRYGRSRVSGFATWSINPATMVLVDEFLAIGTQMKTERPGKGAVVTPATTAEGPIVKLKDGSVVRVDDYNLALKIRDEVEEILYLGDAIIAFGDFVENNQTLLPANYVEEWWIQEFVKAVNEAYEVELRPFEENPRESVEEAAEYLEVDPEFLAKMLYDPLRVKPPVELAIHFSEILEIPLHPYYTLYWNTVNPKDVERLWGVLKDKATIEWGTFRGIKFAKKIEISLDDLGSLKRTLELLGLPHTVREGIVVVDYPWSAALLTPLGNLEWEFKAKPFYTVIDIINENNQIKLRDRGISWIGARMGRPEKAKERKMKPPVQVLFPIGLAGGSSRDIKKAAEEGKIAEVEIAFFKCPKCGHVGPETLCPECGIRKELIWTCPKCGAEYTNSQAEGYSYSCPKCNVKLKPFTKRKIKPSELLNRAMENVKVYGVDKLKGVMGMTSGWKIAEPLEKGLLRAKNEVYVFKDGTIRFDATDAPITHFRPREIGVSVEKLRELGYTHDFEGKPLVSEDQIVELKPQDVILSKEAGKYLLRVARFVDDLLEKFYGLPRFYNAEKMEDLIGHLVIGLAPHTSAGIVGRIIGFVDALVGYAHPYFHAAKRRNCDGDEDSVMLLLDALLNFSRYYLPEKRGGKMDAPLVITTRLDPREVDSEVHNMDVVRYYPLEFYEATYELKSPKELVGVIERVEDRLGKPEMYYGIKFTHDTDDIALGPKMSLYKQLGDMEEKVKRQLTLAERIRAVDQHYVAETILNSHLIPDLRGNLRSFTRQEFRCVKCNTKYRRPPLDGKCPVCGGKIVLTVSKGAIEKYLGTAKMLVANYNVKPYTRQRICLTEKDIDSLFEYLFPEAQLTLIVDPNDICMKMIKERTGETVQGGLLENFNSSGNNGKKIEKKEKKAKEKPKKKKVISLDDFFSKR
T1 sequence (P81412 1-613): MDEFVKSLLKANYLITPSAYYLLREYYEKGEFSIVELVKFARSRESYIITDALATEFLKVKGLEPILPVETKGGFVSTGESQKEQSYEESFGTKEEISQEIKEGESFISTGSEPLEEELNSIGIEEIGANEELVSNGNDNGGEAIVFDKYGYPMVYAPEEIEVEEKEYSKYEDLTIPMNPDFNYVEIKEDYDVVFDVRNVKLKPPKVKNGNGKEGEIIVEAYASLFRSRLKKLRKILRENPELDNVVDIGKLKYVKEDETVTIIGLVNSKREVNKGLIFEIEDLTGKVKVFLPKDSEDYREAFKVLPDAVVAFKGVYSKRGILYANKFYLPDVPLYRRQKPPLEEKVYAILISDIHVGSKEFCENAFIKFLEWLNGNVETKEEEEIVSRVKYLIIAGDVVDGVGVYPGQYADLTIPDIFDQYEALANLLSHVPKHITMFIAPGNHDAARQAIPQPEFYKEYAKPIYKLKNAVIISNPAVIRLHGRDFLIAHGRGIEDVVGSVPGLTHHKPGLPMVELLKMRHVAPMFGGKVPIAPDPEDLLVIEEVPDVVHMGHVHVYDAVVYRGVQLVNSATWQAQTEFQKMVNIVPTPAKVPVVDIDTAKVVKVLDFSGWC
Test: PCR with Pfu DNA Polymerase II in the presence of acidic substances (λDNA template)
Format: biochemical
Details: 0.5 kb fragment; 100 pg λDNA, primers λ1/λ2, 25 cycles 98°C 5 s–66°C 15 s; amount added 1 μg
Method: A reaction mixture comprising λDNA as a template, primers λ1 and λ3 as a primer pair, and Pfu DNA Polymerase II as DNA polymerase was prepared, and PCR was carried out. The composition of the reaction mixture is as follows.
10 mM Tris-hydrochloric acid (pH 9.2), 75 mM potassium chloride, 6 mM magnesium chloride, 0.4 mM each of dATP, dCTP, dGTP and dTTP, 0.01% BSA, 1.25 U of Pfu DNA Polymerase II, 500 pg of λDNA, and 5 pmol each of primers λ1 and λ3 (a final volume being 25 μl). […]
Using the sulfated-fucose-containing Polysaccharide-F obtained in Example 6 described above, dextran sulfate powder (manufactured by Onco), or sodium alginate (100 to 150 centipoises, manufactured by Wako Pure Chemicals), the effects of these acidic substances on the activity of Pfu DNA Polymerase II were examined. A reaction mixture comprising λDNA as a template, primers λ1 and λ2 as a primer pair, and Pfu DNA Polymerase II as DNA polymerase was prepared, and PCR was carried out. The composition of the reaction mixture is as follows.
(§1) 10 mM Tris-hydrochloric acid, pH 9.2, 75 mM potassium chloride, 6 mM magnesium chloride, 0.4 mM each of dATP, dCTP, dGTP and dTTP, 0.01% BSA, 1.25 U of Pfu DNA Polymerase II, 100 pg of λDNA, and 5 pmol each of primers λ1 and λ2 (a final volume being 25 μl). Further, 10 ng of the sulfated-fucose-containing polysaccharide-F, 10 ng of dextran sulfate powder, or 1 μg of sodium alginate was respectively added to the above reaction mixture.
(§2) The reaction in 25 cycles was carried out for each of these reaction mixtures, wherein one cycle of reaction comprises a process consisting of 98° C., 5 seconds—66° C., 15 seconds. Thereafter, 5 μl of the resulting reaction mixture was subjected to electrophoresis on 1% agarose gel containing ethidium bromide in an amount of 0.00005%, whereby an amplified fragment was confirmed.
Further, studies were conducted on the effects of the sulfated-fucose-containing polysaccharide-F obtained in Example 6 described above, the sulfated-fucose-containing polysaccharide-U obtained in Example 7 described above, or sodium polyglutamate (manufactured by Sigma) as an acidic substance. A reaction mixture for PCR was prepared in the same manner as described above except for changing the amount of template λDNA to 500 pg and the primer pairs to primers λ1 and λ3. Five nanograms of the sulfated-fucose-containing polysaccharide-F, 5 ng, 10 ng, 20 ng or 30 ng each of the sulfated-fucose-containing polysaccharide-U, or 250 ng, 500 ng, 750 ng or 1000 ng each of sodium polyglutamate was respectively added to the above reaction mixture.
as §2, with “reaction” for “reaction in 25 cycles”, “in 30 cycles,” for “for each of these reaction mixtures,”, “After the termination of the reaction,” for “Thereafter,”
Using the sulfated-fucose-containing polysaccharide-F obtained in Example 6 described above, the effects on the activity of Pfu DNA Polymerase II were examined. A reaction mixture comprising λDNA as a template, primers λ1 and λ2 as a primer pair, and Pfu DNA Polymerase II as DNA polymerase was prepared, and PCR was carried out. The composition of the reaction mixture is as follows.
as §1, with “500” for “100”, “polysaccharide-F” for “polysaccharide-F, 10 ng of dextran sulfate powder, or 1 μg of sodium alginate”
The reaction in 30 cycles was carried out for each of these reaction mixtures, wherein one cycle of reaction comprises a process consisting of 98° C., 5 seconds—66° C., 15 seconds. […]

sodium alginate
Amplification Results: + (Amplification being observed)
